The subject of the assay is anti-HA mAb clone 12ca5. Format: binding.

As to cyclo(GDVWALYASYA), the “enrichment in affinity selection” value is listed as “not enriched in the selection”. In the case of cyclo(GDAGPYDADYA) it was “enriched”; in that of cyclo(GDVGPDAYDYA), “enriched”.

(Values after article PMC11254100 (Angewandte Chemie (International ed. in English), 2024).)
